Reference: patent US20120201868A1, “TREATMENT AND PREVENTION OF HIV INFECTION” (priority 2009, published 2012)
Where “and” joins values, the source holds several entries; their conditions need not be identical. Equal entries are not always repeated. Where two headings read alike, the source gives them in different places.

Assays:
[1] = in vivo, po; cited from earlier work
[2] = Plasma kinetics after intravenous injection of brecanavir solution in rats; assay type: in vivo; conditions: for clearance / AUC(0-t): rat, plasma, iv
Method: FIG. 1: Individual plasma concentration (ng/ml) versus time profiles following intravenous dosing of a solution of brecanavir in rats at 2 mg/kg.
Brecanavir was injected intraveneously as a 1 mg/ml solution (PEG400/saline 70:30) in rats (n=3) to determine the plasma kinetics of brecanavir in these animals. Plasma samples were collected from each of the rats at selected time points after administration; samples were analyzed for brecanavir concentrations with LC/MS. (See FIG. 1.)

[3] = system: wild type HIV as well as mutated variants; conditions: in words; cited from earlier work
[4] = Plasma kinetics after single subcutaneous injection of brecanavir solution in rats; assay type: in vivo, Sprague-Dawley rats; conditions: for bioavailability: s.c. solution, read-out: average absolute bioavailability (F)
Method: FIG. 2: Individual and mean plasma concentrations of brecanavir following single subcutaneous injection of a brecanavir solution to rats at 16 (Δ) and 56 mg/kg (∘).
Sprague-Dawley rats (Crl:CD® (SD)IGS) of 200-300 g were injected once subcutaneously with an aqueous solution of brecanavir at 16 (n=4) and at 56 (n=4) mg/kg. The solution was prepared one day before dose administration; brecanavir was formulated in an aqueous 30% (w/v) DMA/50% (w/v) PEG400 solution at 35 mg/ml. The ingredients of the solution were: brecanavir, DMA 30% (w/v), PEG 400 50% (w/v) and pyrogenic free water. The content of brecanavir in the formulation was checked using LC-UV. The concentration of brecanavir in the formulation was 35 mg/ml.
Blood samples (0.3 ml on EDTA) were collected from the rats via the tail vein at 1, 2, 4, 7 and 24 h and further at 3, 4, 8, 14, 29, 42 and 56 days after dosing. Plasma samples were analyzed for brecanavir with a qualified research method on LC/MS/MS. Plasma concentrations were plotted as a function of time after dosing (FIG. 2). Pharmacokinetic parameters were calculated using WinNonlin software. Subcutaneous injection of an aqueous solution of brecanavir in rats produced an extended release pharmacokinetic profile with duration of at least 8 weeks (FIG. 2).

[5] = individual rats, i.v. solution, 2 mg/kg
[6] = mean of n=3 rats, i.v. solution, 2 mg/kg
[7] = 2 mg/kg, mean of n=3 rats, i.v. solution
[8] = individual rats, single s.c. solution, 16 mg/kg
[9] = individual rats, single s.c. solution, 56 mg/kg

Question: For `Cc1nc(COc2ccc(C[C@H](NC(=O)O[C@H]3CO[C@H]4OCC[C@H]43)[C@H](O)CN(CC(C)C)S(=O)(=O)c3ccc4c(c3)OCO4)cc2)cs1` [brecanavir, [(3R,3aS,6aR)-2,3,3a,4,5,6a-hexahydro-furo[5,4-b]furan-3-yl] N-[(2S,3R)-4-(1,3-benzodioxol-5-ylsulfonyl-(2-methylpropyl)-amino)-3-hydroxy-1-[4-[(2-methyl-1,3-thiazol-4-yl)methoxy]phenyl]butan-2-yl]-carbamate], which brecanavir exposures [1] is on record?
Answer: insufficient to inhibit PI-resistant virus

Question: What about the AUClast ([2]; individual rats, i.v. solution (PEG400/saline 70:30, 1 mg/ml), 2 mg/kg) of the same compound?
Answer: 1066 ng·h/mL and 1149 ng·h/mL

Question: What about the Cl [2, 5] of the same compound?
Answer: 30 mL/min/kg and 28.3 mL/min/kg

Question: And the Vc [2, 5]?
Answer: 0.70 L/kg and 0.46 L/kg and 0.52 L/kg

Question: And the t1/2β [2, 5]?
Answer: 2.3 h and 1.5 h (2×)

Question: What about the Vc [2, 6] of the same compound?
Answer: 0.56 L/kg

Question: And the t1/2β [2, 6]?
Answer: 1.8 h

Question: What about the clearance ([2]; 2 mg/kg, individual rats, i.v. solution) of the same compound?
Answer: 23.3 mL/min/kg

Question: And the AUC(0-t) ([2]; 2 mg/kg, individual rats, i.v. solution (PEG400/saline 70:30, 1 mg/ml), 2 mg/kg)?
Answer: 1370 ng·h/mL

Question: And the AUC(0-t) [2, 7]?
Answer: 1200 ng·h/mL

Question: What about the clearance [2, 7] of the same compound?
Answer: 28.3 mL/min/kg

Question: And the distribution volume ([2]; rats, i.v. injection, in words)?
Answer: moderate to small distribution volume

Question: And the plasma clearance ([2]; rats, i.v. injection, in words)?
Answer: moderate plasma clearance

Question: And the “activity against wild type HIV and mutated variants” value [3]?
Answer: pronounced activity

Question: And the AUC(0-t) ([4]; Sprague-Dawley (Crl:CD(SD)IGS), rat, plasma, sc, 16 mg/kg, individual rats, single s.c. solution, 16 mg/kg)?
Answer: 6500 ng·h/mL

Question: And the AUC(0-t) ([4]; Sprague-Dawley (Crl:CD(SD)IGS), rat, plasma, sc, 16 mg/kg, mean of n=4 rats, single s.c. solution, 16 mg/kg)?
Answer: 8720 ng·h/mL

Question: And the Cmax ([4]; Sprague-Dawley (Crl:CD(SD)IGS), rat, plasma, sc, 16 mg/kg, mean of n=4 rats, single s.c. solution, 16 mg/kg, read-out: Cmax)?
Answer: 369 ng/mL

Question: What about the AUC(0-t) ([4]; Sprague-Dawley (Crl:CD(SD)IGS), rat, plasma, sc, 56 mg/kg, individual rats, single s.c. solution, 56 mg/kg) of the same compound?
Answer: 29900 ng·h/mL

Question: And the AUC(0-t) ([4]; Sprague-Dawley (Crl:CD(SD)IGS), rat, plasma, sc, 56 mg/kg, mean of n=4 rats, single s.c. solution, 56 mg/kg)?
Answer: 21700 ng·h/mL

Question: What about the Cmax ([4]; Sprague-Dawley (Crl:CD(SD)IGS), rat, plasma, sc, 56 mg/kg, mean of n=4 rats, single s.c. solution, 56 mg/kg, read-out: Cmax) of the same compound?
Answer: 322 ng/mL

Question: And the bioavailability ([4]; Sprague-Dawley (Crl:CD(SD)IGS), rat, plasma, sc, rats, 16 mg/kg)?
Answer: 91%

Question: What about the bioavailability ([4]; Sprague-Dawley (Crl:CD(SD)IGS), rat, plasma, sc, rats, 56 mg/kg) of the same compound?
Answer: 66%

Question: And the Cmax ([4]; individual rats, single s.c. solution (30% DMA/50% PEG400, 35 mg/ml), 16 mg/kg)?
Answer: 273 ng/mL and 289 ng/mL and 591 ng/mL and 234 ng/mL

Question: What about the AUClast [4, 8] of the same compound?
Answer: 9630 ng·h/mL and 9291 ng·h/mL and 9448 ng·h/mL

Question: And the t1/2λz [4, 8]?
Answer: 10.9 days and 5.58 days and 22.3 days and 17 days

Question: What about the AUClast [4, 9] of the same compound?
Answer: 17602 ng·h/mL and 24284 ng·h/mL and 15221 ng·h/mL

Question: What about the Cmax [4, 9] of the same compound?
Answer: 360 ng/mL and 204 ng/mL and 417 ng/mL and 305 ng/mL

Question: And the t1/2λz [4, 9]?
Answer: 53 days and 16.2 days and 19.2 days and 44.67 days

Question: What about the t1/2λz ([4]; mean of n=4 rats, single s.c. solution, 16 mg/kg) of the same compound?
Answer: 14 days

Question: And the t1/2λz ([4]; mean of n=4 rats, single s.c. solution, 56 mg/kg)?
Answer: 33.2 days

Question: And the “duration of extended release pharmacokinetic profile” value ([4]; rats, s.c. aqueous solution)?
Answer: at least 8 weeks

Question: What about the “absorption into the systemic circulation” value ([4]; rats, s.c. injection of a high dose solution, in words) of the same compound?
Answer: very slow absorption
